Structures can show the parent of a compound that is named as a salt.
| melting point [°C] | SMILES |
| --- | --- |
| 270 to 271 | Cc1ccccc1C1(CN)C2CC3CC(C2)CC1C3 (stereo not shown) (as salt: hydrochloride) |
| 89 to 90 | CCc1cccc(C2(CN)C3CC4CC(C3)CC2C4)c1 (stereo not shown) (as salt: hydrochloride) [Example 1, 2-(3-Ethylphenyl)-2-adamantanemethanamine hydrochloride] |
| 242 to 243 | Cc1cccc(C2(CN)C3CC4CC(C3)CC2C4)c1 (stereo not shown) (as salt: hydrochloride) [Example 2, 2-(3-Methylphenyl)-2-adamantanemethanamine hydrochloride] |
| 253 to 255 | NCC1(c2ccccc2)C2CC3CC(C2)CC1C3 (stereo not shown) (as salt: hydrochloride) [Example 3, 2-Phenyl-2-adamantanemethanamine hydrochloride] |
| 261 to 263 | Cc1ccc(C2(CN)C3CC4CC(C3)CC2C4)cc1 (stereo not shown) (as salt: hydrochloride) [Example 4, 2-(4-Methylphenyl)-2-adamantanemethanamine hydrochloride] |
| 262 to 263 | NCC1(c2ccc(F)cc2)C2CC3CC(C2)CC1C3 (stereo not shown) (as salt: hydrochloride) [Example 6, 2-(4-Fluorophenyl)-2-adamantanemethanamine hydrochloride] |
| > 300 | NCC1(c2ccc(Cl)cc2)C2CC3CC(C2)CC1C3 (stereo not shown) (as salt: hydrochloride) [Example 7, 2-(4-Chlorophenyl)-2-adamantanemethanamine hydrochloride] |
| 234 to 235 | COc1ccc(C2(CN)C3CC4CC(C3)CC2C4)cc1 (stereo not shown) (as salt: hydrochloride) [Example 8, 2-(4-Methoxyphenyl)-2-adamantanemethanamine hydrochloride] |
| 279 to 281 | NCC1(c2ccc(C(F)(F)F)cc2)C2CC3CC(C2)CC1C3 (stereo not shown) (as salt: hydrochloride) [Example 9, 2-(4-Trifluoromethylphenyl)-2-adamantanemethanamine hydrochloride] |
| 255 to 257 | NCC1(c2cccs2)C2CC3CC(C2)CC1C3 (stereo not shown) (as salt: hydrochloride) [Example 10, 2-(2-Thienyl)-2-adamantanemethanamine hydrochloride] |
